Assay results taken from patent US10730851B2, “Polymorph of triaryldimethylpiperazine dihydrochloride and preparation method and application thereof” (priority 2016, dated 2020).
In brackets after ≈: the same amount, converted by molar mass.

Legend:
[1] = system: SPF-grade SD rats; assay: Forced swimming test; format: in vivo; conditions: 40 mg/kg Ip, three times (23.5 h, 5 h, 1 h before test), x ± SEM
Procedure: Forced swimming test is used to test the antidepressant effects of polymorph forms P, F, O, B and J.
the swimming test equipment is a transparent glass round cylinder with a height of 46 cm and an inner diameter of 20 cm, the test water temperature is 23° C.˜25° C., the test water depth is 30 cm, and each cylinder is used only once.
(§1) 300 mg of a polymorph form P is weighed with an electronic balance, and the polymorph form P is dissolved with 0.9% normal saline, and finally the volume is fixed to 100 mL with 0.9% normal saline, at this time, the concentration of dihydrochloride in the experimental reagent is 3 mg/mL for later use.
as §1, with “600” for “300”, “6” for “3”
400 mg of desipramine (DMI) is weighed with an electronic balance, DMI is dissolved with 0.9% normal saline, and then the volume is fixed to 100 mL with 0.9% normal saline for later use.
Forty SPF-grade SD rats are prepared and randomly divided into 4 groups, namely vehicle control group, positive control group, experimental group 1 and experimental group 2, with 10 rats in each group. The day before the test, the rats were placed in water for 15 min to pre-swim for 15 min in advance to adapt to the swimming test environment, then taken out and dried, placed in the cage under an infrared lamp for 15 min and then placed in the original cage. After 24 h, a formal swimming test is conducted, that is, the rats are put into water again after 24 h, and the rats are continuously observed for 5 min. The swimming process are needed to be photographed. The drug is administered during two swimming sessions.
The positive control group containing DMI is administered three times, at 23.5 h, 5 h and 1 h before the formal swimming test respectively. Vehicle control group, experimental group 1 and experimental group 2 are each administered only once and subcutaneously within 1 h.
The behaviors of the rats are scored by the scorer every 5 seconds after recording the experiment.
1) Static—when the rat floats on the water surface without struggling and moves only to keep its head above the water surface, the rat is evaluated as static;
2) Swimming—if the rats have obvious swimming behaviors, not only to keep their heads above the water surface, or to travel around in a round cylinder, they are evaluated as swimming;
3) Wall climbing—the rats' front paws have obvious behavior of entering and leaving the water surface, usually, rats are evaluated as wall climbing in front of the round cylinder wall.
All behavioral are scored by a single person. To avoid bias of observation, the scorer only observed and scored without knowing the administration situations. Then multiple test fragments are randomly selected, and the scorer will score the second round to determine the accuracy of observation. The test video is scored again by the second scorer to determine the accuracy between scorers. The second scorer are also required to observe without knowing the drug administration. Finally, in order to determine the effectiveness of the method, the first scorer scored again and recorded the duration of various behaviors with a stopwatch.
SPSSwin11.0 software is used for variance analysis. One-way variance analysis is used for homogeneity of variance, and Dunnett test is used for heterogeneity of variance.

[2] = Dynamic solubility test in water, SGF, FeSSIF, FaSSIF; format: physicochemical
Procedure: The dynamic solubility of a free base, polymorph forms B, P, F, J and O in water or a biological medium such as Stimulated Gastric Fluid (SGF), Fed State Simulated Intestinal Fluid (FeSSIF) or Fasted State Simulated Intestinal Fluid (FaSSIF) is determined.
0.2 g sodium chloride and 0.1 g Triton X-100 is weighed and placed into a 100 mL volumetric flask. Purified water is added to dissolve. A stir is performed until the solid is completely dissolved. About 135 μL concentrated hydrochloric acid solution (37%, […]) is added, then the pH is adjusted to 1.8 with […] hydrochloric acid or 1 mmoL/L sodium hydroxide. Finally, the volume is fixed with purified water to obtain Stimulated Gastric Fluid (SGF) for later use.
Each of 0.41 mL glacial acetic acid, 0.20 g sodium hydroxide and 0.59 g sodium chloride is weighed and placed to a 50 mL volumetric flask. About 48 mL purified water is added to dissolve, the pH is adjusted to 5.0 with 1 mmoL/L hydrochloric acid or 1 mmoL/L sodium hydroxide, and the volume is fixed with purified water. Then 0.56 g of Simulated Intestinal Fluid powder (SIF powder for short, which is composed of […] with a molar ratio of 4:1) is added, stirred and ultrasonically dissolved to obtain Fed State Simulated Intestinal Fluid (FeSSIF) for later use.
Each of 0.17 g of anhydrous sodium dihydrogen phosphate (NaH2PO4), 0.021 g of sodium hydroxide and 0.31 g of sodium chloride is weighed and placed into a 50 mL volumetric flask. About 48 mL of purified water is added to dissolve, the pH is adjusted to 6.5 with 1 mmoL/L hydrochloric acid or 1 mmoL/L sodium hydroxide, and the volume is fixed with purified water. 0.11 g of SIF powder is added, stirred and ultrasonically dissolved to obtain Fasted State Simulated Intestinal Fluid (FaSSIF) for later use.
Each 30 mg of the free base, and polymorph forms B, P, F, J and O are weighed. 3 mL of purified water, Stimulated Gastric Fluid (SGF), Fed State Simulated Intestinal Fluid (FeSSIF) or Fasted State Simulated Intestinal Fluid (FaSSIF)) is added and oscillated at room temperature. 0.6 mL of suspension is taken each time at a set time point, filtered and separated with a 0.45 μm nylon filter membrane, then XRPD characterization is performed on the solid sample, and the concentration in the clear solution is measured by HPLC.

[3] = Relative bioavailability test; format: in vivo, SPF-grade SD rats; conditions: rats, 20 mg/kg·bw by gavage in 0.5% CMC-Na, x ± s, n = 6, 20 mg/kg
Procedure: HPLC-MS/MS method is used to detect the blood drug concentration of target drugs in SPF-grade SD rats, and the relative bioavailability of 0.5% CMC-Na suspension of a free base and 0.5% CMC-Na solution of a polymorph form P are calculated and compared.
60.46 mg of a free base is accurately weighed and placed into a 15 mL centrifuge tube, 12 mL of 0.5% CMC-Na solution is measured and added into the centrifuge tube with a measuring cylinder, vortexed for 5 min, and ultrasonically dispersed for 15 min to obtain 0.5% CMC-Na suspension of free base with a concentration of 5.04 mg/ml, which is currently formulated when using and vibrated at any time during administration.
60.05 mg of a polymorph form P is accurately weighed and placed into a 15 mL centrifuge tube, 12 mL of 0.5% CMC-Na solution is measured and added into the centrifuge tube with a measuring cylinder, vortexed for 5 min, and ultrasonically dispersed for 15 min to obtain 0.5% CMC-Na solution of 5.00 mg/mL polymorph form P, which is currently formulated when using.
Twelve SPF-grade SD rats are selected and randomly divided into a free base group and a polymorph form P group with 6 rats in each group (both male and female). Animals are fasted for 12 h but have free access to water. Weighing is performed and, the administration volume of each rat is calculated according to the animal weight, so that the administration dose is 20 mg/kg·bw. During administration, the drugs are each administrated by gavage, and 0.5% CMC-Na suspension/solution of the above two target drugs are extracted by 2 mL syringe respectively. The gavage needle is inserted into the stomach from the corner of the rat's mouth and pushed the solution thereto.
Blood is collected from the fundus venous plexus of rats at 0.2 mL before (0 h) and 0.5, 1, 2, 4, 6, 8, 12 and 24 h after administration, anticoagulated with 300 IU/mL heparin (1:20) and centrifuged (3000 r/min) for 15 min. After plasma separation, the blood drug concentration of the target drug is determined by HPLC-MS/MS.
Referring to the above-mentioned bioavailability test of the polymorph form P, the bioavailability tests of polymorph forms F, O, B and J are conducted respectively. Different from the bioavailability test of the polymorph form P, rats are given 0.5% CMC-Na solution of the polymorph form F, O, B or J by gavage respectively. Other operations are the same as the above bioavailability test.

CNCCCN1c2ccccc2CCc2ccccc21 [desipramine, reference compound]
Behavior duration, Static [1]: 37.5 ± 6.5 s | Behavior duration, Swimming [1]: 143.0 ± 15.5 s | Behavior duration, Wall climbing [1]: 119.5 ± 12.0 s | Number of behaviors, Swimming [1]: 28.6 ± 3.1 times | Number of behaviors, Wall climbing [1]: 23.9 ± 2.4 times | Number of behaviors, Static ([1]; 5 min observation): 7.5 ± 1.3 times

CC1CCN(C(=O)c2ccc([C@H](c3cccc(O)c3)N3C[C@@H](C)N(Cc4cccc(F)c4)C[C@@H]3C)cc2)CC1 [free base]
pH in clear solution ([2]; FaSSIF, Time 1): 6.5 | Crystal form of insoluble solid sample ([2]; FaSSIF, Time 1, XRPD): invariability | Solubility ([2]; FaSSIF, Time 1, room temperature): 13 µg/mL (≈ 24.5 µM) | pH in clear solution ([2]; FaSSIF, Time 2): 6.5 | Crystal form of insoluble solid sample ([2]; FaSSIF, Time 2, XRPD): invariability | Solubility ([2]; FaSSIF, Time 2, room temperature): 17 µg/mL (≈ 32.1 µM) | pH in clear solution ([2]; FaSSIF, Time 4): 6.5 | Crystal form of insoluble solid sample ([2]; FaSSIF, Time 4, XRPD): invariability | Solubility ([2]; FaSSIF, Time 4, room temperature): 16 µg/mL (≈ 30.2 µM) | pH in clear solution ([2]; FaSSIF, Time 24): 6.5 | Crystal form of insoluble solid sample ([2]; FaSSIF, Time 24, XRPD): invariability | Solubility ([2]; FaSSIF, Time 24, room temperature): 27 µg/mL (≈ 51 µM) | pH in clear solution ([2]; FeSSIF, Time 1): 4.9 | Crystal form of insoluble solid sample ([2]; FeSSIF, Time 1, XRPD): invariability | Solubility ([2]; FeSSIF, Time 1, room temperature): 59 µg/mL (≈ 111 µM) | pH in clear solution ([2]; FeSSIF, Time 2): 5.0 | Crystal form of insoluble solid sample ([2]; FeSSIF, Time 2, XRPD): invariability | Solubility ([2]; FeSSIF, Time 2, room temperature): 63 µg/mL (≈ 119 µM) | pH in clear solution ([2]; FeSSIF, Time 4): 5.0 | Crystal form of insoluble solid sample ([2]; FeSSIF, Time 4, XRPD): invariability | Solubility ([2]; FeSSIF, Time 4, room temperature): 62 µg/mL (≈ 117 µM) | pH in clear solution ([2]; FeSSIF, Time 24): 5.0 | Crystal form of insoluble solid sample ([2]; FeSSIF, Time 24, XRPD): invariability | Solubility ([2]; FeSSIF, Time 24, room temperature): 81 µg/mL (≈ 153 µM) | pH in clear solution ([2]; SGF, Time 1): 1.9 | Crystal form of insoluble solid sample ([2]; SGF, Time 1, XRPD): invariability | Solubility ([2]; SGF, Time 1, room temperature): 2100 µg/mL (≈ 3960 µM) | pH in clear solution ([2]; SGF, Time 2): 1.9 | Crystal form of insoluble solid sample ([2]; SGF, Time 2, XRPD): invariability | Solubility ([2]; SGF, Time 2, room temperature): 2700 µg/mL (≈ 5100 µM) | pH in clear solution ([2]; SGF, Time 4): 1.9 | Crystal form of insoluble solid sample ([2]; SGF, Time 4, XRPD): invariability | Solubility ([2]; SGF, Time 4, room temperature): 2700 µg/mL (≈ 5100 µM) | pH in clear solution ([2]; SGF, Time 24): 2.1 | Crystal form of insoluble solid sample ([2]; SGF, Time 24, XRPD): invariability | Solubility ([2]; SGF, Time 24, room temperature): 3200 µg/mL (≈ 6040 µM) | pH in clear solution ([2]; Water, Time 1): 5.6 | pH in clear solution ([2]; Water, Time 2): 5.7 | Crystal form of insoluble solid sample ([2]; Water, Time 2, XRPD): invariability | Solubility ([2]; Water, Time 2, room temperature): <LOQ | pH in clear solution ([2]; Water, Time 4): 5.6 | Crystal form of insoluble solid sample ([2]; Water, Time 4, XRPD): invariability | Solubility ([2]; Water, Time 4, room temperature): <LOQ | pH in clear solution ([2]; Water, Time 24): 5.8 | Crystal form of insoluble solid sample ([2]; Water, Time 24, XRPD): invariability | Solubility ([2]; Water, Time 24, room temperature): <LOQ | AUC(0-24h) [3]: 288.6 ng·h/mL | AUC(0-24h) ([3]; listed as Free base): 288.6 ± 64.7 ng·h/mL | Cmax ([3]; listed as Free base): 51.68 ± 6.56 ng/mL | Tmax ([3]; listed as Free base): 3.6 ± 0.9 h | t1/2z ([3]; listed as Free base): 2.4 ± 0.8 h
